# Assay results as given in patent US7279187B2, “Mineral fortification systems” (The Procter & Gamble Company, priority 2003, dated 2007).
# Experiment: Colour development of iron source when added to water or other aqueous solutions
# Assay type: physicochemical
# Excerpt: Such a color can change the color appearance the food or beverage to which FERROCHEL has been added. In the case of many foods and beverages, this color change would be unacceptable.
structure (smiles),measurement,value
NCC(=O)[O-].NCC(=O)[O-].[Fe+2] [FERROCHEL],Colour imparted when added to water,imparts relatively quickly a deep rusty yellow color
